The results in this text go back to ChEMBL document CHEMBL3585264 (J Med Chem, 2015).

Data set [1] in a line: Plasma concentration in CB17 SCID mouse xenografted with human PC3 cells at 10 mg/kg, po measured at 24 hrs by LC/MS-MS analysis. The format is ADME, organism-based, PC-3.
Data set [2] is described as follows: Oral bioavailability in mouse at 5 mg/kg. The format is ADME, organism-based. The conditions noted are these: in vivo.
A short description of data set [3]: Plasma concentration in CB17 SCID mouse xenografted with human PC3 cells at 1 mg/kg, po measured at 6 hrs by LC/MS-MS analysis. The format is ADME, organism-based, PC-3.
Data set [4] is described as follows: Plasma concentration in CB17 SCID mouse xenografted with human PC3 cells at 1 mg/kg, po measured at 24 hrs by LC/MS-MS analysis. The format is ADME, organism-based, PC-3.
The nature of data set [5]: Cmax in rat at 5 mg/kg, po. The conditions noted are these: in vivo. Set-up: dose 5 mg/kg, route oral. The class given is ADME, organism-based.
Data set [6] in a line: AUC (0 to infinity) in rat at 5 mg/kg, po. The class given is ADME, organism-based. Set-up: dose 5 mg/kg, time infinity, route oral. The conditions noted are these: in vivo.
Data set [7] can be described thus: Plasma concentration in CB17 SCID mouse xenografted with human PC3 cells at 1 mg/kg, po measured at 1 hr by LC/MS-MS analysis. The format is ADME, organism-based, PC-3.
A short description of data set [8]: Oral bioavailability in dog at 0.3 mg/kg. The format is ADME, organism-based, Canis lupus familiaris. The conditions noted are these: in vivo.
A short description of data set [9]: Plasma concentration in CB17 SCID mouse xenografted with human PC3 cells at 1 mg/kg, po measured at 10 hrs by LC/MS-MS analysis. The class given is ADME, organism-based, PC-3.
A short description of data set [10]: Plasma concentration in CB17 SCID mouse xenografted with human PC3 cells at 10 mg/kg, po measured at 1 hr by LC/MS-MS analysis. The format is ADME, organism-based, PC-3.
The nature of data set [11]: Plasma concentration in CB17 SCID mouse xenografted with human PC3 cells at 1 mg/kg, po measured at 3 hrs by LC/MS-MS analysis. The class given is ADME, organism-based, PC-3.
The nature of data set [12]: Mean residence time in rat at 2 mg/kg, iv. The format is ADME, organism-based. The note with it: in vivo.
Data set [13] in a line: Plasma concentration in CB17 SCID mouse xenografted with human PC3 cells at 10 mg/kg, po measured at 10 hrs by LC/MS-MS analysis. The class given is ADME, organism-based, PC-3.
Data set [14] in a line: Plasma concentration in CB17 SCID mouse xenografted with human PC3 cells at 10 mg/kg, po measured at 3 hrs by LC/MS-MS analysis. The class given is ADME, organism-based, PC-3.
The nature of data set [15]: Oral bioavailability in rat at 5 mg/kg. The class given is ADME, organism-based. The note with it: in vivo.
The nature of data set [16]: Plasma concentration in CB17 SCID mouse xenografted with human PC3 cells at 10 mg/kg, po measured at 6 hrs by LC/MS-MS analysis. The format is ADME, organism-based, PC-3.
Data set [17] is described as follows: (§1) Tmax in rat at 5 mg/kg, po. The class given is ADME, organism-based. The note with it: in vivo.
A further data set has as its system Rattus norvegicus. The data set is described as §1. The conditions noted are these: in vivo, BLD = below limit of detection. The class given is ADME, organism-based.

As to `CCN1C(=O)CNc2ncc(-c3ccc(-c4nc[nH]n4)nc3C)nc21` [CC-115], the concentration at 24 h is 800 nM in data set [1] and 5 nM in data set [4]. The bioavailability worked out at 53% in data set [2], 100% in data set [8] and 78% in [15]. The concentration at 6 h came to 130 nM in [3] and 2100 nM in data set [16]. In addition, the Cmax in data set [5] was determined as 1670 nM. For the same compound, the total exposure AUC(0-inf) in data set [6] was 27.5 µM·h. Further, the concentration at 1 h in [7] is 530 nM; in data set [10], 6780 nM. The values for the concentration at 10 h in data set [9] and in data set [13] were 120 nM and 1180 nM, respectively. The concentration at 3 h is 340 nM in [11] and 5690 nM in [14]. In [12], this compound had a mean residence time MRT of 4.3 h.
In turn, `O=C1CN(CCC2CCOCC2)c2nc(-c3ccc(-c4nc[nH]n4)nc3)cnc2N1` returned a Cmax in data set [5] of 20 nM. This compound also gave an AUC(0-inf) in [6] of 0.18 µM·h. The Tmax in data set [17] was found to be 0.9 h.
In data set [5], `CCN1CC(=O)Nc2ncc(-c3ccc(-c4nc[nH]n4)nc3C)nc21` displayed a Cmax of 550 nM. The same compound returned an AUC(0-inf) in data set [6] of 5.27 µM·h. The compound also showed an MRT in [12] of 1.2 h. The bioavailability in data set [15] stood at 50%.
On to `O=C1CN(CCC2CCOCC2)c2nc(-c3ccc(-c4nc[nH]n4)cc3)cnc2N1`, for which, in the data set on Rattus norvegicus, the Tmax result is given as “BLD”.
